Experimental data reported in patent publication US9238620B1, “Pharmaceutical uses of sulfur-containing compound” (NATIONAL SUN YAT-SEN UNIVERSITY, priority 2014, dated 2016).

Experiments:
[1] = test system: MMP-2; assay: Gelatin zymography of A549 conditioned medium, MMP-2; format: cell-based, Human; settings: A549 cells, 20, 30, or 40 μg/mL, 24 h
Method: (§1) Phytomedicine 2012, 19, 768-778). Briefly, the culture medium was electrophoresed (80 V for 120 min) in an 8% SDS-PAGE gel containing 0.1% gelatin. The gel was then washed at room temperature in a solution containing 2.5% (v/v) Triton X-100 with two changes and subsequently transferred to a reaction buffer for enzymatic reaction containing 1% NaN3; 10 mM CaCl2; and 40 mM Tris-HCl, pH 8.0; at 37° C. with shaking overnight (for 12-15 h). Finally, the MMP gel was stained for […] with 0.25% (w/v) Coomassie blue in 10% acetic acid (v/v) and 20% methanol (v/v) and destained in 10% acetic acid (v/v) and 20% methanol (v/v).

[2] = test system: FAK; assay: Western blotting in A549 cells, FAK phosphorylation; format: cell-based, Human; settings: A549 cells, 20, 30, or 40 μg/mL, 24 h
Method: (§2) A549 cells were plated in 10-cm dishes at a density of 3×10^6 cells per dish and incubated with 20, 30 or 40 μg/mL dihydroaustrasulfone alcohol in F-12 containing 1% (v/v) FBS for 24 h. The cells were collected, lysed in a lysis solution, and then incubated at 25° C. for 10 min. Total proteins were separated with SDS-PAGE before being transferred to PVDF membranes. The membranes were blocked with 5% (v/v) nonfat dry milk in PBS-Tween 20 for one hour and changed to an appropriate dilution of specific primary antibodies in TBS-T buffer overnight at 4° C. The blots were then incubated with horseradish peroxidase-linked secondary antibody for 1 h and then developed with the […] (ECL) reagent and exposed to Hyperfilm (Amersham, Arlington Height, Ill., USA). The data were analyzed by Gel-Logic 200 Imaging Systems, Molecular Imaging Software.

[3] = test system: PI3K; assay: Western blotting in A549 cells, PI3K protein level; format: cell-based, Human; settings: A549 cells, 20, 30, or 40 μg/mL, 24 h
Method: as §2

[4] = test system: A549 cells; assay: MTT cell proliferation (cytotoxicity) assay; format: cell-based, Human
Method: The MTT assay was performed in the A549 cell lines to measure the cytotoxicity of dihydroaustrasulfone alcohol. All cell lines were seeded in 96-well plates with 2×10^4 cells/well in culture medium. Dihydroaustrasulfone alcohol was dissolved in PBS. The cells were treated with various concentrations of dihydroaustrasulfone alcohol as indicated in each figure. After 24 h, the number of viable cells was determined. Then, 5 mg/mL MTT was added to each well, and the plate was incubated at 37° C. for 3 h. The medium was removed, and 50 μL DMSO was added. The absorbance at 590 nm was measured for each well on an ELISA reader. The data are presented as the mean±SEM of three independent experiments.

[5] = test system: ERK1/2; assay: Western blotting in A549 cells, ERK1/2 phosphorylation; format: cell-based, Human; settings: A549 cells, 20, 30, or 40 μg/mL, 24 h
Method: as §2

[6] = test system: A549 cells; assay: Flow cytometry analysis of cell cycle and apoptosis (sub-G1); format: cell-based, Human; settings: 20 and 40 μg/mL, treatment for 24 h
Method: A549 cells (2×10^5) were seeded into each well of a 12-well plate (TPP; Techno Plastic Products AG, Trasadingen, Switzerland) 24 h before being treated with various concentrations of dihydroaustrasulfone alcohol for 24 h. The cells were harvested with trypsin-EDTA, washed twice with 10 mL ice-cold PBS, fixed in 70% (v/v) ethanol, and kept at 4° C. The cells were then stained with propidium iodide (PI) [100 μg/mL PI, 0.2% (v/v) Nonidet P-40, and 1 mg/mL RNase A (DNase-free) in PBS lacking Ca^2+ and Mg^2+ at a 1:1:1 ratio by volume] and the DNA contents were analyzed with flow cytometry (Becton Dickinson, San Jose, Calif., USA). The intensity of PI fluorescence was linearly amplified, and both the area and width of the fluorescence pulse were measured. Ten thousand events were acquired, and the percentage of hypodiploid (apoptosis, sub-G1) events and the percentages of cells in the G0/G1, S and G2/M phases were determined using the DNA analysis software ModFitL T, version 2.0 (Verity Software, Topsham, Me., USA).

[7] = test system: AKT; assay: Western blotting in A549 cells, AKT phosphorylation; format: cell-based, Human; settings: A549 cells, 20, 30, or 40 μg/mL, 24 h
Method: as §2

[8] = test system: A549 cells; assay: Wound healing assay; format: cell-based, Human; settings: 30 and 40 μg/mL, 18 h
Method: For cell motility determination, A549 cells (2×10^5 cells/mL) were seeded in a 12-well tissue culture plate. After one day, the center of the cell monolayers was scraped with a sterile micropipette tip to create a straight zone (gap) of constant width. Then, each well was washed with PBS, and A549 cells were exposed to various concentrations of dihydroaustrasulfone alcohol (20, 30 or 40 μg/mL). Wound closure was monitored and photographed at 0 h and 18 h with a Nikon inverted microscope. To quantify the migrated cells, pictures of the initial wounded monolayers were compared with the corresponding pictures of cells at the end of the incubation. Artificial lines fitting the cutting edges were drawn on pictures of the original wounds and overlaid on the pictures of cultures after incubation. Cells that had migrated across the white lines were counted in six random fields from each triplicate treatment.

[9] = test system: JNK1/2; assay: Western blotting in A549 cells, JNK1/2 phosphorylation; format: cell-based, Human; settings: A549 cells, 20, 30, or 40 μg/mL, 24 h
Method: as §2

[10] = test system: MMP-9; assay: Gelatin zymography of A549 conditioned medium, MMP-9; format: cell-based, Human; settings: A549 cells, 20, 30, or 40 μg/mL, 24 h
Method: as §1

[11] = test system: A549 cells; assay: Trans-well cell migration assay; format: cell-based, Human; settings: 30 or 40 μg/mL
Method: Tumor cell migration was assayed in trans-well chambers (Millipore) according to the method reported by Huang et al. (Lai, K. C.; Huang, A. C.; Hsu, S. C.; Kuo, C. L.; Yang, J. S.; Wu, S. H.; Chung, J. G. Benzyl isothiocyanate (BITC) inhibits migration and invasion of human colon cancer HT29 cells by inhibiting matrix metalloproteinase-2/-9 and urokinase plasminogen (uPA) through PKC and MAPK signaling pathway. J. Agric. Food Chem. 2010, 58, 2935-2942), with some modifications. Briefly, trans-well chambers with 6.5 mm polycarbonate filters of […] pore size were used. A549 cells (1×10^4 cells/mL) and 20, 30 or 40 μg/mL of dihydroaustrasulfone alcohol were suspended in F-12 (100 μL, serum free), placed in the upper trans-well chamber, and incubated for 24 h at 37° C. Then, the cells on the upper surface of the filter were completely wiped away with a cotton swab, and the lower surface of the filter was fixed in methanol, stained with 10% Giemsa solution, and counted under a microscope at a magnification of 200×. For each replicate, the tumor cells in 10 randomly selected fields were determined and the counts were averaged.

[12] = test system: Lewis lung carcinoma (LLC); assay: Lewis lung carcinoma-bearing tumor model, tumor size; format: in vivo, C57BL/6J mice; settings: 8 or 16 mg/kg IP daily, 14-day treatment
Method: (§3) The animal experiments were approved by the Institutional Animal Care and Use Committee of China Medical University (approval ID: 102-194-C). All animal care followed the institutional animal ethical guidelines of China Medical University. C57BL/6J male mice (average 25-28 g; 6 weeks old) were obtained from the Laboratory Animal Center, College of Medicine, National Taiwan University (Taipei, Taiwan). The C57BL/6J mice were kept on a 12 h light/dark cycle at 25° C. C57BL/6J mice were subcutaneously implanted with LLC cells (7×10^5 cells in 100 μL). The treatment of dihydroaustrasulfone alcohol start while all the tumors volume were larger than 100 mm^3. Eighteen mice were randomly assigned to three treatment groups (6 animals per group). Group I (untreated group) was subcutaneously grafted with LLC cells and given vehicle solvent. Group II was grafted with LLC cells and then treated with dihydroaustrasulfone alcohol (8 mg/kg). Group III was grafted with LLC cells and then treated with dihydroaustrasulfone alcohol (16 mg/kg). The dihydroaustrasulfone alcohol was diluted in normal saline and administered by IP. Body weight and tumor volume were measured every week after cell injection. The tumor width (W) and length (L) were measured every week by calipers, and the tumor volume was calculated as L×W2×0.52. The mice were treated daily for 2 weeks and then sacrificed.

[13] = Lewis lung carcinoma-bearing tumor model, body weight; format: in vivo, C57BL/6J mice; settings: 8 or 16 mg/kg IP, days 8 or 14
Method: as §3

CC(=O)CCS(=O)(=O)CCO [dihydroaustrasulfone alcohol]
activity of MMP-2 [1]: significantly inhibited | phosphorylation of FAK [2]: reduced phosphorylation of FAK | protein levels of PI3K [3]: inhibited the protein levels of PI3K in a dose-dependent manner | cell viability ([4]; 60, 80, and 100 μg/mL, 24 h): significantly suppressed | IC50 ([4]; Homo sapiens, A549, 24 h, read-out: IC50, viability of A549 cells): 273 µM | phosphorylation of ERK1/2 [5]: inhibited | apoptosis in the sub-G1 phase [6]: no effect | phosphorylation of AKT [7]: decrease in the phosphorylation | migration of A549 cells (wound healing) [8]: significantly decreased | phosphorylation of JNK1/2 [9]: inhibited | activity of MMP-9 [10]: significantly inhibited | migration of A549 cells (trans-well) [11]: significantly decreased | tumor size compared with the LLC control group [12]: significantly reduced | body weights compared with the LLC control group [13]: not significantly different
